Among the data in ChEMBL document CHEMBL4118090, “Dihydrothieno-pyridin-one and Tetrahydrothieno-azepinone Inhibitors of Enhancer of Zeste Homologue 2” (ACS Med Chem Lett, 2017) are IC50 values, retold here.

Chain of Histone-lysine N-methyltransferase EZH2 (Q15910 whole entry): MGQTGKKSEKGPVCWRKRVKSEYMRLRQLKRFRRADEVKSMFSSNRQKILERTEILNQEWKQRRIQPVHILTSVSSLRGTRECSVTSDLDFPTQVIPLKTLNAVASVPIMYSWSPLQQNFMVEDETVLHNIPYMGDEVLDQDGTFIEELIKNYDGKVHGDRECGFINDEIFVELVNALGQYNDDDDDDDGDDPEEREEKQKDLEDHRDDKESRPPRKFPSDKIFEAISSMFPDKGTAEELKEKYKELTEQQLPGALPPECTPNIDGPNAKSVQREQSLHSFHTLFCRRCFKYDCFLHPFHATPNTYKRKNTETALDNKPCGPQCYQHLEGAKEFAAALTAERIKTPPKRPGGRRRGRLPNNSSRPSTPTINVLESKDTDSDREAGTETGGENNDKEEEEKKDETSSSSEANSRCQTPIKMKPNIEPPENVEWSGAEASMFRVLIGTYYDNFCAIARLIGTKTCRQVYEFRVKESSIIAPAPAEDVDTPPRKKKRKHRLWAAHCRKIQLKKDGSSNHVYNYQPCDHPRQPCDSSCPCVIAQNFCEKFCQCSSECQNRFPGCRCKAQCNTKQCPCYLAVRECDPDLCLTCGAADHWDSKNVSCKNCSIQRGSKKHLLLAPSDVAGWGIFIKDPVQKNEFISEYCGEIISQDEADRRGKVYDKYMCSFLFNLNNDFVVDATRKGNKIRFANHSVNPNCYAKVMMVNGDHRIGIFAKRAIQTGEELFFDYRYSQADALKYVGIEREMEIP

This assay concerns the target Histone-lysine N-methyltransferase EZH2 (Homo sapiens, UniProt Q15910). Kind of assay: Inhibition of methyltransferase activity of flag-tagged EZH2 in human PRC2 complex expressed in Sf9 insect cells using biotinylated histone H3K27 peptide as substrate after 60 mins in presence of 3H-SAM by scintillation proximity assay. Background: Scintillation proximity formats need no separation of bound from free tracer.
Regarding `CC[C@@H](c1scc(C(=O)NCc2c(C)cc(C)[nH]c2=O)c1C)C1CCN(Cc2ccc(Cl)cn2)CC1`, the IC50 was at most 10 nM.

Take `CC[C@@H](c1sc2c(c1C)C(=O)N(Cc1c(C)cc(C)[nH]c1=O)CC2)C1CCN(Cc2ccccc2)CC1`: the IC50 is at most 10 nM.

Regarding `CC[C@@H](c1sc2c(c1C)CN(C(=O)c1c(C)cc(C)[nH]c1=O)CC2)C1CCN(Cc2ccccn2)CC1`, the IC50 was at most 10 nM.

For `Cc1cc(C)c(CN2CCCc3sc([C@H](C)C4CCN(CC5CCCCC5)CC4)c(C)c3C2)c(=O)[nH]1`, the IC50 is at most 10 nM.

For the molecule `Cc1cc(C)c(CN2CCCc3sc([C@H](C)C4CCN(Cc5ccccn5)CC4)c(C)c3C2)c(=O)[nH]1`, the IC50 is at most 10 nM.

In the case of `CC[C@@H](c1sc2c(c1C)CN(Cc1c(C)cc(C)[nH]c1=O)CC2)C1CCN(Cc2ccnc(OC)c2)CC1`, the half-inhibitory concentration (IC50) is at most 10 nM.

One may read the IC50 as the concentration that gives 50% inhibition.
